Reference: patent US7575930B2, “Method for analyzing oligosaccharides from blood plasma” (priority 2005, dated 2009)

How the values were obtained:
[1] = Monitoring of the plasma concentration of 3 octasaccharides in beagle dogs after subcutaneous administration (plasma filtration + anion-exchange HPLC); type: in vivo, male dogs of the beagle breed; settings: 0.5 mg/kg each
Description: A plasma sample with a volume of between 100 and 1000 μl is withdrawn and, if appropriate, the internal standard is added to the latter.
After homogenization, the resulting solution is introduced into a 30 kD Ultrafree 05 ultrafiltration cartridge (Millipore) rinsed beforehand with 250 μl of water by centrifuging at 10 000 rev/min for 5 minutes. The plasma is introduced into the upper part of the cartridge once or twice, if the amounts to be filtered are greater than 500 μl.
The cartridge is centrifuged at 10 000 rev/min for between 1 and 2 hours and then the filtrate is withdrawn. If appropriate, the second part of the plasma to be filtered is introduced into the upper part of the cartridge and the latter is again centrifuged. The exact amount of plasma introduced will have been weighed. The cartridge is centrifuged until the protein residue in the upper part of the cartridge represents no more than approximately 10% of the initial part.
The filtrate is withdrawn and 210 μl of 3M KCl per ml of plasma filtered are added to the concentrate.
After homogenization, the cartridge is centrifuged at 10 000 rev/min for between 1 and 4 hours. The cartridge is centrifuged until the protein residue in the upper part of the cartridge represents no more than approximately 10% of the initial part.
The second filtrate is withdrawn and 210 μl of 3M KCl per ml of plasma filtered are added a second time to the concentrate.
The third filtrate is withdrawn and 250 μl of water per ml of plasma filtered are added.
The filtrates are combined and diluted 5 fold in water, and the whole is injected directly in anion-exchange HPLC. Immediately before injection, the pH of the injected solution is adjusted to 3 by addition of 1N HCl.
The filtered plasma is analyzed by anion-exchange HPLC.
The columns used are IonPAc As11 columns (Dionex), with a length of 25 cm and an internal diameter of 2 mm. The detector used is a UV spectrophotometer equipped with an array of diodes.
The whole of the […] is injected after adjustment of the pH to 3 by addition of N HCl. The flow rate chosen is 0.22 ml/min; the column temperature is 40° C.
Elution is carried out in gradient mode. The two solutions used are:
Solvent A: NaH2PO4 2.5 mM, brought to pH 2.9 by addition of H3PO4
Solvent B: NaClO4 1N, NaH2PO4 2.5 mM, brought to pH 3.0 by addition of H3PO4
The elution gradient is as follows:
T=0 min: % B=3; T=40 min: % B=60; T=60 min: % B=80
The evolution of a mixture of three octasaccharides in the blood of male dogs of the beagle breed is monitored. These 3 octasaccharides, symbolized ΔIIaIIsIsIs, ΔIsIIaIIsIs and ΔIIaIIsIsIs^1,6-anhydro, are the main affinity octasaccharides of the octasaccharide fractions of Lovenox®.
The mixture is administered subcutaneously to 3 male dogs of the beagle breed at a target dose with regard to each of these 3 constituents of 0.5 mg/kg. The administration solution is a 0.9% NaCl solution of the mixture of the 3 octasaccharides at the target concentration of 0.5 mg/ml. Blood samples of 5 ml are withdrawn at the times 0, 0.25 h, 0.5 h, 1 h, 2 h, 4 h, 6 h, 8 h, 24 h, 30 h and 48 h after administration. The blood samples withdrawn are collected in tubes containing 400 μl of a CTAD (citrate, theophylline, adenosine, dipyridamole) mixture. After homogenization, the solution is centrifuged at 3000 g at 15° C. for 15 min. The plasma supernatant is recovered and stored at −20° C. until use.
For the treatment of the plasma before HPLC injection, approximately 1 ml of plasma is withdrawn and weighed, to which 50 μl of a solution of the internal standard at a concentration of approximately 0.02 g/l are added.
The internal standard is chosen so that it is structurally as close as possible to the products to be analyzed. Its structure is given below.
The tetrasaccharide used makes it possible to correct the potentional influence of the variations in the extraction yield.
The plasma is treated and analyzed by HPLC.

ATIII = ATIII (Homo sapiens, UniProt P01008); test: Affinity for ATIII; type: binding
Sequence of ATIII (P01008 33-464, species assumed): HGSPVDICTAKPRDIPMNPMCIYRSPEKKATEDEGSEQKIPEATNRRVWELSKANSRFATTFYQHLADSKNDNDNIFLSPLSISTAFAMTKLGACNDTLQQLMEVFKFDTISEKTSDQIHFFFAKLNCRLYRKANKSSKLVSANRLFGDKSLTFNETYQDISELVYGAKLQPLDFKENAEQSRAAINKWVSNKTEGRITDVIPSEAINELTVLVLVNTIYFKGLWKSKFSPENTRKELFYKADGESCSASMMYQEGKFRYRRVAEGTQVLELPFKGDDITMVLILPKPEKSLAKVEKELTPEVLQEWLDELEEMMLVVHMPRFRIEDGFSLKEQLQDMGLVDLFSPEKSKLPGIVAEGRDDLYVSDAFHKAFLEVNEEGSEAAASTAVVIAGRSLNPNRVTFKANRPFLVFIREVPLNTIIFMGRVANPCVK

plasma concentration ([1]; Dog 1, 0 h after subcutaneous administration): 0 nM
plasma concentration ([1]; Dog 1, 0.25 h after subcutaneous administration): 10 nM
plasma concentration ([1]; Dog 1, 0.5 h after subcutaneous administration): 70 nM
plasma concentration ([1]; Dog 1, 1 h after subcutaneous administration): 160 nM
plasma concentration ([1]; Dog 1, 2 h after subcutaneous administration): 330 nM
plasma concentration ([1]; Dog 1, 4 h after subcutaneous administration): 270 nM
plasma concentration ([1]; Dog 1, 6 h after subcutaneous administration): 220 nM
plasma concentration ([1]; Dog 1, 8 h after subcutaneous administration): 180 nM
plasma concentration ([1]; Dog 1, 24 h after subcutaneous administration): 40 nM
plasma concentration ([1]; Dog 1, 30 h after subcutaneous administration): 20 nM
plasma concentration ([1]; Dog 1, 48 h after subcutaneous administration): 0 nM
plasma concentration ([1]; Dog 2, 0 h after subcutaneous administration): 0 nM
plasma concentration ([1]; Dog 2, 0.25 h after subcutaneous administration): 30 nM
plasma concentration ([1]; Dog 2, 0.5 h after subcutaneous administration): 60 nM
plasma concentration ([1]; Dog 2, 1 h after subcutaneous administration): 110 nM
plasma concentration ([1]; Dog 2, 2 h after subcutaneous administration): 200 nM
plasma concentration ([1]; Dog 2, 4 h after subcutaneous administration): 180 nM
plasma concentration ([1]; Dog 2, 6 h after subcutaneous administration): 230 nM
plasma concentration ([1]; Dog 2, 8 h after subcutaneous administration): 150 nM
plasma concentration ([1]; Dog 2, 24 h after subcutaneous administration): 30 nM
plasma concentration ([1]; Dog 2, 30 h after subcutaneous administration): 20 nM
plasma concentration ([1]; Dog 2, 48 h after subcutaneous administration): 0 nM
plasma concentration ([1]; Dog 3, 0 h after subcutaneous administration): 0 nM
plasma concentration ([1]; Dog 3, 0.25 h after subcutaneous administration): 20 nM
plasma concentration ([1]; Dog 3, 0.5 h after subcutaneous administration): 90 nM
plasma concentration ([1]; Dog 3, 1 h after subcutaneous administration): 130 nM
plasma concentration ([1]; Dog 3, 2 h after subcutaneous administration): 190 nM
plasma concentration ([1]; Dog 3, 4 h after subcutaneous administration): 280 nM
plasma concentration ([1]; Dog 3, 6 h after subcutaneous administration): 230 nM
plasma concentration ([1]; Dog 3, 8 h after subcutaneous administration): 190 nM
plasma concentration ([1]; Dog 3, 24 h after subcutaneous administration): 30 nM
plasma concentration ([1]; Dog 3, 30 h after subcutaneous administration): 20 nM
plasma concentration ([1]; Dog 3, 48 h after subcutaneous administration): 0 nM
affinity for ATIII (ATIII): high affinity for ATIII
SMILES: CC(=O)NC1C(OC2C(C(=O)O)OC(OC3C(COS(=O)(=O)O)OC(OC4C(C(=O)O)OC(OC5C(COS(=O)(=O)O)OC(O)C(NS(=O)(=O)O)C5O)C(OS(=O)(=O)O)C4O)C(NS(=O)(=O)O)C3OS(=O)(=O)O)C(O)C2O)OC(COS(=O)(=O)O)C(OC2OC(C(=O)O)C(OC3OC(COS(=O)(=O)O)C(OC4OC(C(=O)O)=CC(O)C4OS(=O)(=O)O)C(O)C3NS(=O)(=O)O)C(O)C2O)C1O (stereo not shown) [ΔIsIIaIIsIs]
